# Measurements taken from PubChem BioAssay (NCI).
#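 All cell lines were grown in 96-well plates and treated with compound for 48 hours. TGI: concentration producing complete growth inhibition.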
# Key:
# Test in all cases: inhibition of tumour cell growth, NCI panel, 48 h
# UO-31 renal = test system: UO-31 renal
# HL-60(TB) leukemia = test system: HL-60(TB) leukemia
# BT-549 breast = test system: BT-549 breast
# SF-295 CNS = test system: SF-295 CNS
# SW-620 colon = test system: SW-620 colon
# SK-MEL-28 melanoma = test system: SK-MEL-28 melanoma
# HS 578T breast = test system: HS 578T breast
# SK-OV-3 ovarian = test system: SK-OV-3 ovarian
# OVCAR-5 ovarian = test system: OVCAR-5 ovarian
# SF-268 CNS = test system: SF-268 CNS
# OVCAR-3 ovarian = test system: OVCAR-3 ovarian
# UACC-62 melanoma = test system: UACC-62 melanoma
# SNB-75 CNS = test system: SNB-75 CNS
# RPMI-8226 leukemia = test system: RPMI-8226 leukemia
# MDA-N = test system: MDA-N
# K-562 leukemia = test system: K-562 leukemia
# EKVX NSCLC = test system: EKVX NSCLC
# HCT-116 colon = test system: HCT-116 colon
# HCC-2998 colon = test system: HCC-2998 colon
# M14 melanoma = test system: M14 melanoma
# SNB-19 CNS = test system: SNB-19 CNS
# A549 NSCLC = test system: A549 NSCLC
# OVCAR-4 ovarian = test system: OVCAR-4 ovarian
# HCT-15 colon = test system: HCT-15 colon
# HT29 colon = test system: HT29 colon
# T-47D breast = test system: T-47D breast
# MDA-MB-231 breast = test system: MDA-MB-231 breast
# NCI-H460 lung = test system: NCI-H460 lung
# U251 CNS = test system: U251 CNS
# NCI/ADR-RES ovarian = test system: NCI/ADR-RES ovarian
# SK-MEL-5 melanoma = test system: SK-MEL-5 melanoma
# UACC-257 melanoma = test system: UACC-257 melanoma
# HOP-62 NSCLC = test system: HOP-62 NSCLC
# SF-539 CNS = test system: SF-539 CNS
# TK-10 renal = test system: TK-10 renal
# CCRF-CEM leukemia = test system: CCRF-CEM leukemia
# PC-3 prostate = test system: PC-3 prostate
# SK-MEL-2 melanoma = test system: SK-MEL-2 melanoma
# MOLT-4 leukemia = test system: MOLT-4 leukemia
# KM12 colon = test system: KM12 colon
# MCF7 breast = test system: MCF7 breast
# MDA-MB-435 = test system: MDA-MB-435
# ACHN renal = test system: ACHN renal
# SR leukemia = test system: SR leukemia
# RXF 393 renal = test system: RXF 393 renal
# OVCAR-8 ovarian = test system: OVCAR-8 ovarian
# SN12C renal = test system: SN12C renal
# DU-145 prostate = test system: DU-145 prostate
# NCI-H226 lung = test system: NCI-H226 lung
# IGROV1 ovarian = test system: IGROV1 ovarian
# CAKI-1 renal = test system: CAKI-1 renal
# MALME-3M melanoma = test system: MALME-3M melanoma
# COLO 205 colon = test system: COLO 205 colon
# NCI-H522 lung = test system: NCI-H522 lung
# HOP-92 NSCLC = test system: HOP-92 NSCLC
# 786-0 renal = test system: 786-0 renal
# A498 renal = test system: A498 renal
# LOX IMVI melanoma = test system: LOX IMVI melanoma
# NCI-H23 lung = test system: NCI-H23 lung
structure (smiles),measurement,setting,value
COc1cc2c(cc1OC)-c1cc3ccc(OC)c(OC)c3c[n+]1CC2,TGI,UO-31 renal,> 100 µM
same,TGI,HL-60(TB) leukemia,> 100 µM
same,TGI,BT-549 breast,> 100 µM
same,TGI,SF-295 CNS,> 100 µM
same,TGI,SW-620 colon,> 100 µM
same,TGI,SK-MEL-28 melanoma,> 100 µM
same,TGI,HS 578T breast,> 100 µM
same,TGI,SK-OV-3 ovarian,> 100 µM
same,TGI,OVCAR-5 ovarian,> 100 µM
same,TGI,SF-268 CNS,> 100 µM
same,TGI,OVCAR-3 ovarian,> 100 µM
same,TGI,UACC-62 melanoma,> 100 µM
same,TGI,SNB-75 CNS,> 100 µM
same,TGI,RPMI-8226 leukemia,> 100 µM
same,TGI,MDA-N,> 100 µM
same,TGI,K-562 leukemia,> 100 µM
same,TGI,EKVX NSCLC,> 100 µM
same,TGI,HCT-116 colon,> 100 µM
same,TGI,HCC-2998 colon,> 100 µM
same,TGI,M14 melanoma,> 100 µM
same,TGI,SNB-19 CNS,68 µM
same,TGI,A549 NSCLC,> 100 µM
same,TGI,OVCAR-4 ovarian,> 100 µM
same,TGI,HCT-15 colon,> 100 µM
same,TGI,HT29 colon,> 100 µM
same,TGI,T-47D breast,> 100 µM
same,TGI,MDA-MB-231 breast,> 100 µM
same,TGI,NCI-H460 lung,> 100 µM
same,TGI,U251 CNS,> 100 µM
same,TGI,NCI/ADR-RES ovarian,> 100 µM
same,TGI,SK-MEL-5 melanoma,> 100 µM
same,TGI,UACC-257 melanoma,> 100 µM
same,TGI,HOP-62 NSCLC,> 100 µM
same,TGI,SF-539 CNS,> 100 µM
same,TGI,TK-10 renal,> 100 µM
same,TGI,CCRF-CEM leukemia,> 100 µM
same,TGI,PC-3 prostate,> 100 µM
same,TGI,SK-MEL-2 melanoma,> 100 µM
same,TGI,MOLT-4 leukemia,> 100 µM
same,TGI,KM12 colon,> 100 µM
same,TGI,MCF7 breast,> 100 µM
same,TGI,MDA-MB-435,> 100 µM
same,TGI,ACHN renal,> 100 µM
same,TGI,SR leukemia,> 100 µM
same,TGI,RXF 393 renal,> 100 µM
same,TGI,OVCAR-8 ovarian,> 100 µM
same,TGI,SN12C renal,> 100 µM
same,TGI,DU-145 prostate,> 100 µM
same,TGI,NCI-H226 lung,> 100 µM
same,TGI,IGROV1 ovarian,> 100 µM
same,TGI,CAKI-1 renal,> 100 µM
same,TGI,MALME-3M melanoma,> 100 µM
same,TGI,COLO 205 colon,> 100 µM
same,TGI,NCI-H522 lung,> 100 µM
same,TGI,HOP-92 NSCLC,> 100 µM
same,TGI,786-0 renal,> 100 µM
COc1ccc(N=CN(C)C)c(C)c1,TGI,UO-31 renal,78.1 µM
same,TGI,HL-60(TB) leukemia,4.1 µM
same,TGI,BT-549 breast,58.2 µM
same,TGI,SF-295 CNS,51.6 µM
same,TGI,SK-MEL-28 melanoma,85.6 µM
same,TGI,HS 578T breast,19.8 µM
same,TGI,SK-OV-3 ovarian,82.8 µM
same,TGI,OVCAR-5 ovarian,> 100 µM
same,TGI,SF-268 CNS,> 100 µM
same,TGI,OVCAR-3 ovarian,13.1 µM
same,TGI,UACC-62 melanoma,42.6 µM
same,TGI,SNB-75 CNS,63.9 µM
same,TGI,RPMI-8226 leukemia,> 100 µM
same,TGI,A498 renal,60.5 µM
same,TGI,LOX IMVI melanoma,15.2 µM
same,TGI,MDA-N,> 100 µM
same,TGI,K-562 leukemia,> 100 µM
same,TGI,EKVX NSCLC,> 100 µM
same,TGI,HCT-116 colon,19.6 µM
same,TGI,M14 melanoma,55.5 µM
same,TGI,SNB-19 CNS,> 100 µM
same,TGI,A549 NSCLC,> 100 µM
same,TGI,OVCAR-4 ovarian,73.6 µM
same,TGI,HCT-15 colon,> 100 µM
same,TGI,HT29 colon,44.6 µM
same,TGI,T-47D breast,68.4 µM
same,TGI,NCI-H23 lung,7.23 µM
same,TGI,MDA-MB-231 breast,58 µM
same,TGI,U251 CNS,72.5 µM
same,TGI,NCI/ADR-RES ovarian,> 100 µM
same,TGI,SK-MEL-5 melanoma,12.5 µM
same,TGI,UACC-257 melanoma,9.95 µM
same,TGI,HOP-62 NSCLC,45.4 µM
same,TGI,SF-539 CNS,82.1 µM
same,TGI,TK-10 renal,> 100 µM
same,TGI,CCRF-CEM leukemia,16.5 µM
same,TGI,PC-3 prostate,31 µM
same,TGI,SK-MEL-2 melanoma,30.4 µM
same,TGI,MOLT-4 leukemia,23.8 µM
same,TGI,MCF7 breast,44.3 µM
same,TGI,MDA-MB-435,93.3 µM
same,TGI,ACHN renal,66.3 µM
same,TGI,RXF 393 renal,67.2 µM
same,TGI,OVCAR-8 ovarian,83.8 µM
same,TGI,SN12C renal,64 µM
same,TGI,DU-145 prostate,82 µM
same,TGI,NCI-H226 lung,64.5 µM
same,TGI,IGROV1 ovarian,> 100 µM
same,TGI,CAKI-1 renal,> 100 µM
same,TGI,MALME-3M melanoma,54 µM
same,TGI,COLO 205 colon,28 µM
same,TGI,NCI-H522 lung,8.08 µM
same,TGI,HOP-92 NSCLC,36.3 µM
same,TGI,786-0 renal,> 100 µM
